The values below come from patent US20070128217A1 (priority 2003, published 2007).

Assay [1] concerns control sera (pooled serum of ten healthy LUMC hospital workers; commercial negative donor pooled serum from the Dutch bloodbank). In kind it is binding, human. Set-up: Binding of Control serum LUMC to linear peptides / Binding of Control serum Blood-bank to linear peptides / Binding of Control serum LUMC to looped peptides / Binding of Control Serum Blood-Bank to Looped peptides / Binding of Control serum LUMC to linear peptides of the protein M of SARS-CoV Urbani / Binding of Control serum Blood-bank to linear peptides of the protein M of SARS-CoV Urbani / Binding of Control serum LUMC to looped peptides of the protein M of SARS-CoV Urbani / Binding of Control Serum Blood-Bank to Looped peptides of the protein M of SARS-CoV Urbani: unit not given here.

Assay [2] concerns rabbit serum obtained by immunizing a rabbit with the SARS-CoV strain Frankfurt 1. In kind it is binding. Details: Binding of a rabbit serum to linear peptides / Binding of a rabbit serum to looped peptides / Rabbit serum linear peptides / Rabbit serum looped peptides / Binding of a rabbit serum to linear peptides of protein N of SARS-CoV Urbani (Rabbit serum linear peptides) / Binding of a rabbit serum to looped/cyclic peptides of protein N of SARS-CoV Urbani (Rabbit serum looped peptides): unit not given here.

The test system of assay [3] is antibodies in sera from SARS patients (sera 1a, 1b, 2, 6, 37, 62, London, SARS-yellow, SARS-green). In kind it is binding, human. Details: Binding of serum 6 to linear peptides of protein X1 of SARS-CoV Urbani / Binding of serum 37 to linear peptides of protein X1 of SARS-CoV Urbani / Binding of serum 6 to looped/cyclic peptide (PEPSCAN-ELISA) / Binding of serum 37 to looped/cyclic peptide (PEPSCAN-ELISA) / Binding of serum 37 to looped/cyclic peptides of protein X1 of SARS-CoV Urbani / Binding of serum 6 to linear peptides of protein X2 / Binding of serum 37 to linear peptides of protein X2 / Binding of serum 37 to looped/cyclic peptides of protein X2 of SARS-CoV Urbani / Binding of serum 6 to linear peptides of protein M of SARS-CoV Urbani / Binding of serum 37 to linear peptides of protein M of SARS-CoV Urbani / Binding of serum 6 to looped/cyclic peptides of protein M of SARS-CoV Urbani / Binding of serum 37 to looped/cyclic peptides of protein M of SARS-CoV Urbani / Binding of serum 6 to linear peptides of protein X3 of SARS-CoV Urbani / Binding of serum 37 to linear peptides of protein X3 of SARS-CoV Urbani / Binding of serum 37 to looped/cyclic peptides of protein X3 of SARS-CoV Urbani / Binding of serum 6 to linear peptides of protein X4 of SARS-CoV Urbani / Binding of serum 37 to linear peptides of protein X4 of SARS-CoV Urbani / Binding of serum 37 to looped/cyclic peptides of protein X4 of SARS-CoV Urbani / Binding of serum 6 to linear peptides of protein X5 of SARS-CoV Urbani / Binding of serum 37 to linear peptides of protein X5 of SARS-CoV Urbani / Binding of serum 37 to looped/cyclic peptides of protein X5 of SARS-CoV Urbani / Binding of serum 6 to linear peptides of protein N of SARS-CoV Urbani / Binding of serum 37 to linear peptides of protein N of SARS-CoV Urbani / Binding of serum 6 to linear peptide (PEPSCAN-ELISA) / Binding of serum 1a to looped/cyclic peptides of protein N of SARS-CoV Urbani / Binding of serum 1b to looped/cyclic peptides of protein N of SARS-CoV Urbani / Binding of serum 2 to looped/cyclic peptides of protein N of SARS-CoV Urbani / Binding of serum 6 to looped/cyclic peptides of protein N of SARS-CoV Urbani / Binding of serum 37 to looped/cyclic peptides of protein N of SARS-CoV Urbani / Binding of serum 62 to looped/cyclic peptides of protein N of SARS-CoV Urbani / Binding of serum London to looped/cyclic peptides of protein N of SARS-CoV Urbani / Binding of serum SARS-green to looped/cyclic peptides of protein N of SARS-CoV Urbani: unit not given here.

With PCPSGTYEGNSPFHP, in assay [1], the “Binding of Control Serum Blood-Bank to Looped peptides” value stood at 0.7, the “Binding of Control serum Blood-bank to linear peptides” value is on record as 0.6, the “Binding of Control serum LUMC to linear peptides” value is recorded as 0.5 and the “Binding of Control serum LUMC to looped peptides” value worked out at 0.9. In addition, in assay [2], the “Rabbit serum linear peptides” value is on record as 0.6 and the “Rabbit serum looped peptides” value is 0.4. In addition, in assay [3], the “Binding of serum 1a to linear peptides of protein X4 of SARS-CoV Urbani” value is on record as 0.7, the “Binding of serum 1a to looped/cyclic peptides of protein X4 of SARS-CoV Urbani” value worked out at 0.7, the “Binding of serum 1b to linear peptides of protein X4 of SARS-CoV Urbani” value is listed as 0.5 and the “Binding of serum 1b to looped/cyclic peptides of protein X4 of SARS-CoV Urbani” value is given as 0.1. Also, in assay [3], the “Binding of serum 2 to linear peptides of protein X4 of SARS-CoV Urbani” value came out at 0.4, the “Binding of serum 2 to looped/cyclic peptides of protein X4 of SARS-CoV Urbani” value was determined as 0.7, the “Binding of serum 6 to linear peptides of protein X4 of SARS-CoV Urbani” value came to 0.5 and the “Binding of serum 6 to looped/cyclic peptides of protein X4 of SARS-CoV Urbani” value is 0.5. Besides, in assay [3], the “Binding of serum 37 to linear peptides of protein X4 of SARS-CoV Urbani” value was found to be 0.7, the “Binding of serum 37 to looped/cyclic peptides of protein X4 of SARS-CoV Urbani” value was found to be 0.7, the “Binding of serum 62 to linear peptides of protein X4 of SARS-CoV Urbani” value worked out at 0.7 and the “Binding of serum 62 to looped/cyclic peptides of protein X4 of SARS-CoV Urbani” value was 0.7. In assay [3], the “Binding of serum London to linear peptides of protein X4 of SARS-CoV Urbani” value amounted to 0.7, the “Binding of serum London to looped/cyclic peptides of protein X4 of SARS-CoV Urbani” value was determined as 0.3, the “Binding of serum SARS-green to linear peptides of protein X4 of SARS-CoV Urbani” value came to 0.5 and the “Binding of serum SARS-green to looped/cyclic peptides of protein X4 of SARS-CoV Urbani” value turned out to be 0.4. Moreover, in assay [3], the “Binding of serum SARS-yellow to linear peptides of protein X4 of SARS-CoV Urbani” value was found to be 0.7 and the “Binding of serum SARS-yellow to looped/cyclic peptides of protein X4 of SARS-CoV Urbani” value was 0.4.
On to PETNILLNVPLRGTI, for which, in assay [1], the “Binding of Control Serum Blood-Bank to Looped peptides of the protein M of SARS-CoV Urbani” value stood at 0.8, the “Binding of Control serum Blood-bank to linear peptides of the protein M of SARS-CoV Urbani” value came out at 0.8, the “Binding of Control serum LUMC to linear peptides of the protein M of SARS-CoV Urbani” value is 0.8 and the “Binding of Control serum LUMC to looped peptides of the protein M of SARS-CoV Urbani” value is listed as 0.7. In assay [2], the “Rabbit serum linear peptides” value worked out at 0.1 and the “Rabbit serum looped peptides” value was 0.3. In addition, in assay [3], the “Binding of serum 1a to linear peptides of protein M of SARS-CoV Urbani” value amounted to 0.8, the “Binding of serum 1a to looped/cyclic peptides of protein M of SARS-CoV Urbani” value came to 0.6, the “Binding of serum 1b to linear peptides of protein M of SARS-CoV Urbani” value stood at 0.6 and the “Binding of serum 1b to looped/cyclic peptides of protein M of SARS-CoV Urbani” value turned out to be 0.6. Further, in assay [3], the “Binding of serum 2 to linear peptides of protein M of SARS-CoV Urbani” value is given as 0.7, the “Binding of serum 2 to looped/cyclic peptides of protein M of SARS-CoV Urbani” value stood at 0.7, the “Binding of serum 6 to linear peptides of protein M of SARS-CoV Urbani” value is recorded as 0.4 and the “Binding of serum 6 to looped/cyclic peptides of protein M of SARS-CoV Urbani” value is given as 0.9. Besides, in assay [3], the “Binding of serum 37 to linear peptides of protein M of SARS-CoV Urbani” value worked out at 0.9, the “Binding of serum 37 to looped/cyclic peptides of protein M of SARS-CoV Urbani” value is listed as 0.8, the “Binding of serum 62 to linear peptides of protein M of SARS-CoV Urbani” value came out at 0.5 and the “Binding of serum 62 to looped/cyclic peptides of protein M of SARS-CoV Urbani” value is reported as 0.8. In assay [3], the “Binding of serum London to linear peptides of protein M of SARS-CoV Urbani” value was determined as 0.4, the “Binding of serum London to looped/cyclic peptides of protein M of SARS-CoV Urbani” value was determined as 0.3, the “Binding of serum SARS-green to linear peptides of protein M of SARS-CoV Urbani” value is 0.5 and the “Binding of serum SARS-green to looped/cyclic peptides of protein M of SARS-CoV Urbani” value was 0.0. Moreover, in assay [3], the “Binding of serum SARS-yellow to linear peptides of protein M of SARS-CoV Urbani” value came out at 0.3 and the “Binding of serum SARS-yellow to looped/cyclic peptides of protein M of SARS-CoV Urbani” value was found to be 0.6.
Turning to PFGWLVIGVAFLAVF, in assay [1], the “Binding of Control Serum Blood-Bank to Looped peptides” value turned out to be 0.5, the “Binding of Control serum Blood-bank to linear peptides” value amounted to 0.5, the “Binding of Control serum LUMC to linear peptides” value is listed as 0.5 and the “Binding of Control serum LUMC to looped peptides” value came to 0.5. In addition, in assay [2], the “Binding of a rabbit serum to linear peptides” value was 1.1 and the “Binding of a rabbit serum to looped peptides” value is recorded as 0.5. For the same sequence, in assay [3], the “Binding of serum 1a to linear peptides of protein X1 of SARS-CoV Urbani” value was 0.7, the “Binding of serum 1a to looped/cyclic peptide (PEPSCAN-ELISA)” value worked out at 0.5, the “Binding of serum 1b to linear peptides of protein X1 of SARS-CoV Urbani” value was found to be 0.5 and the “Binding of serum 1b to looped/cyclic peptide (PEPSCAN-ELISA)” value stood at 0.4. Moreover, in assay [3], the “Binding of serum 2 to linear peptides of protein X1 of SARS-CoV Urbani” value is recorded as 0.5, the “Binding of serum 2 to looped/cyclic peptide (PEPSCAN-ELISA)” value is 0.5, the “Binding of serum 6 to linear peptides of protein X1 of SARS-CoV Urbani” value was found to be 0.4 and the “Binding of serum 6 to looped/cyclic peptide (PEPSCAN-ELISA)” value is reported as 0.2. In assay [3], the “Binding of serum 37 to linear peptides of protein X1 of SARS-CoV Urbani” value is 0.7, the “Binding of serum 37 to looped/cyclic peptide (PEPSCAN-ELISA)” value was found to be 0.5, the “Binding of serum 62 to linear peptides of protein X1 of SARS-CoV Urbani” value was determined as 0.6 and the “Binding of serum 62 to looped/cyclic peptide (PEPSCAN-ELISA)” value worked out at 0.5. Besides, in assay [3], the “Binding of serum London to linear peptides of protein X1 of SARS-CoV Urbani” value is listed as 0.3, the “Binding of serum London to looped/cyclic peptide (PEPSCAN-ELISA)” value is listed as 0.2, the “Binding of serum SARS-green to linear peptides of protein X1 of SARS-CoV Urbani” value stood at 0.3 and the “Binding of serum SARS-green to looped/cyclic peptide (PEPSCAN-ELISA)” value was 0.4. Besides, in assay [3], the “Binding of serum SARS-yellow to linear peptides of protein X1 of SARS-CoV Urbani” value amounted to 0.7 and the “Binding of serum SARS-yellow to looped/cyclic peptide (PEPSCAN-ELISA)” value is 0.5.
As to PKEITVATSRTLSYY, in assay [1], the “Binding of Control Serum Blood-Bank to Looped peptides of the protein M of SARS-CoV Urbani” value is 0.6, the “Binding of Control serum Blood-bank to linear peptides of the protein M of SARS-CoV Urbani” value stood at 0.5, the “Binding of Control serum LUMC to linear peptides of the protein M of SARS-CoV Urbani” value was 0.3 and the “Binding of Control serum LUMC to looped peptides of the protein M of SARS-CoV Urbani” value is recorded as 0.6. In assay [2], the “Rabbit serum linear peptides” value was determined as 0.5 and the “Rabbit serum looped peptides” value is on record as 0.2. In addition, in assay [3], the “Binding of serum 1a to linear peptides of protein M of SARS-CoV Urbani” value was 0.6, the “Binding of serum 1a to looped/cyclic peptides of protein M of SARS-CoV Urbani” value was determined as 0.6, the “Binding of serum 1b to linear peptides of protein M of SARS-CoV Urbani” value is recorded as 0.4 and the “Binding of serum 1b to looped/cyclic peptides of protein M of SARS-CoV Urbani” value stood at 0.6. Further, in assay [3], the “Binding of serum 2 to linear peptides of protein M of SARS-CoV Urbani” value is 0.5, the “Binding of serum 2 to looped/cyclic peptides of protein M of SARS-CoV Urbani” value amounted to 0.6, the “Binding of serum 6 to linear peptides of protein M of SARS-CoV Urbani” value is on record as 0.2 and the “Binding of serum 6 to looped/cyclic peptides of protein M of SARS-CoV Urbani” value amounted to 0.7. In assay [3], the “Binding of serum 37 to linear peptides of protein M of SARS-CoV Urbani” value is reported as 0.8, the “Binding of serum 37 to looped/cyclic peptides of protein M of SARS-CoV Urbani” value came out at 0.6, the “Binding of serum 62 to linear peptides of protein M of SARS-CoV Urbani” value is recorded as 0.7 and the “Binding of serum 62 to looped/cyclic peptides of protein M of SARS-CoV Urbani” value was found to be 0.6. In assay [3], the “Binding of serum London to linear peptides of protein M of SARS-CoV Urbani” value turned out to be 0.3, the “Binding of serum London to looped/cyclic peptides of protein M of SARS-CoV Urbani” value worked out at 0.2, the “Binding of serum SARS-green to linear peptides of protein M of SARS-CoV Urbani” value turned out to be 0.1 and the “Binding of serum SARS-green to looped/cyclic peptides of protein M of SARS-CoV Urbani” value is 0.4. In addition, in assay [3], the “Binding of serum SARS-yellow to linear peptides of protein M of SARS-CoV Urbani” value was found to be 0.1 and the “Binding of serum SARS-yellow to looped/cyclic peptides of protein M of SARS-CoV Urbani” value came out at 0.4.
